Tested on: WNT-TCF targets
Experiment: Epistatic rescue with TCF^VP16, Ls174T
Type: cell-based, human
Details: CAP2 5µM, 16h
Description: Lentivectors expressing a TCF4^VP16 protein in a vector independently expressing GFP, or vector alone, plus reporter plasmids were transfected into cells. 72h after transfection cells were visually checked for expression of GFP. Independent batches of cells with >80% GFP expression were chosen for further experimentation and treated with or without compounds in DMEM-F12 (with 2.5% FBS) for 16h and collected in Trizol.
If the effects of CAP2 on WNT-TCF targets were specific, an activated form of TCF should rescue the repression since CAP2 is likely to act downstream of the APC destruction complex since it was found using an N'Δ form of βCATENIN that is APC insensitive. To activate this last step of canonical WNT signaling, a fusion between TCF and the potent transactivation domain of the viral VP16 protein, TCF^VP16 (Melotti et al., 2014, supra), was used to directly and positively regulate TCF targets. […] Rescue of LGR5, cMYC and ASCL2 repression by CAP2 (at 5µM) was also observed although there was variability between the cell types, similarly to the repression of CDKN1A (Table 8), although in all cases it reversed its enhancement by CAP2 treatment (Table 8).

In the case of `CC1=C(C)C(=O)O[C@@H]([C@](C)(O)[C@]2(O)CC[C@@]3(O)[C@@H]4CC=C5CC=CC(=O)[C@]5(C)[C@H]4CC[C@]23C)C1` [CAP2], the “ASCL2 expression, TCF^VP16+ CAP2 / control + CAP2” value is reported as 1.0, the “AXIN2 expression, TCF^VP16+ CAP2 / control + CAP2” value is reported as 16.1 and the “CDKN1A expression, TCF^VP16+ CAP2 / control + CAP2” value is reported as 0.5. The “LGR5 expression, TCF^VP16+ CAP2 / control + CAP2” value was 0.7 and the “cMYC expression, TCF^VP16+ CAP2 / control + CAP2” value was 2.7.
